Results from US8178552B2, “7-Azaindole derivatives and their use in the inhibition of c-Jun N-terminal kinase” (Eisai R&D Management Co., Ltd., priority 2008, dated 2012).

What follows are molecules tested against JNK3 (Homo sapiens, UniProt P53779) (assay: JNK3 SPA assay). Conditions: 3.33 μM ATP, GST-c-Jun substrate; read-out: IC50 against JNK3.
Type: biochemical
Procedure: JNK1, JNK2, JNK3—SPA Assay
JNK1, JNK2, JNK3—SPA Assay • 1. Compound is dissolved in DMSO to a convenient concentration and this is diluted in 10% DMSO to a five times concentrate of the desired starting concentration (frequently 1:100). • 2. 10 μl of 500 mM EDTA is added to alternative wells of the Opti-plate row, which will receive kinase reaction plus DMSO. This creates the negative control. • 3. For the JNK2 and JNK3 assay, compounds are prepared in six 2-fold dilutions with water and each concentration is tested in duplicate. For the JNK1 assay compounds are prepared in four 5-fold dilutions with water which are tested in triplicate. Controls are treated identically. • 4. 20 μl per well of each compound concentration is transferred to an Opti-plate, in duplicate. • 5. 30 μl (JNK2/3 SPA) or 50 μl (JNK1 SPA) of substrate solution (25 mM HEPES pH 7.5, 10 mM magnesium acetate with 3.33 μM ATP (JNK2/3) or 2 μM ATP (JNK1), approximately 7.5 kBq [γ-^33P] ATP, GST-c-Jun, in water) is added to each well. • 6. 50 μl (JNK2/3 SPA) or 30 μl (JNK1 SPA) of kinase solution (JNK in 25 mM HEPES pH 7.5, 10 mM Mg Acetate) is added to each well.
• 7. The plate is incubated for 30 minutes at room temperature. • 8. 100 μl of bead/stop solution is added to each well (5 mg/ml glutathione-PVT-SPA beads, 40 mM ATP in PBS). • 9. Plates are sealed and incubated for 30 minutes at room temperature, centrifuged for 10 minutes at 2500 g and counted. • 10. The IC50 values are calculated as the concentration of the compound being tested at which the phosphorylation of c-Jun is decreased to 50% of the control value.

Chain of JNK3 (P53779 whole entry, species assumed): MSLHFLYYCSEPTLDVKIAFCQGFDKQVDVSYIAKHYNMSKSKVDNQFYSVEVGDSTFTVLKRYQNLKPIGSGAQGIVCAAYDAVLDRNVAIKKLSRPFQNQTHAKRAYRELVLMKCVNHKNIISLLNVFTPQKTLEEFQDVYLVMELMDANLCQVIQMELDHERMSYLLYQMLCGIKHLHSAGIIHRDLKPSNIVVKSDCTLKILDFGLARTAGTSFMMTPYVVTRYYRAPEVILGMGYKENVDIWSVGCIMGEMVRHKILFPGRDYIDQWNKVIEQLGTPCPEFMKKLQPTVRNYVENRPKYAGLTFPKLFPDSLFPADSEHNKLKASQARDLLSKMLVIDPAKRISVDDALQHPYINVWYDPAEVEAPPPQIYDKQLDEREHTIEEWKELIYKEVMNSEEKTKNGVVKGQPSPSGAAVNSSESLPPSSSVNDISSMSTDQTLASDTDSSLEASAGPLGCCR

Molecule	IC50 [nM]
CCCN(C)[C@H]1CC[C@@H](c2cnc3[nH]cc(-c4cnn(C)c4)c3c2)CC1 [Compound I-116, (1s,4s)-N-methyl-4-(3-(1-methyl-1H-pyrazol-4-yl)-1H-pyrrolo[2,3-b]pyridin-5-yl)-N-propylcyclohexanamine]	309
CCCN(CCOC)[C@H]1CC[C@H](c2cnc3[nH]cc(-c4cnn(C)c4)c3c2)CC1 [Compound I-121, (1r,4r)-N-(2-methoxyethyl)-4-(3-(1-methyl-1H-pyrazol-4-yl)-1H-pyrrolo[2,3-b]pyridin-5-yl)-N-propylcyclohexanamine]	363
Cc1c(-c2c[nH]c3ncc([C@H]4CC[C@@H](N5CCOCC5)CC4)cc23)cnn1C [Compound I-96, 4-((1s,4s)-4-(3-(1,5-dimethyl-1H-pyrazol-4-yl)-1H-pyrrolo[2,3-b]pyridin-5-yl)cyclohexyl)morpholine]	1700
c1n[nH]cc1-c1c[nH]c2ncc([C@H]3CC[C@@H](N4CCOCC4)CC3)cc12 [Compound I-78, 4-((1s,4s)-4-(3-(1H-pyrazol-4-yl)-1H-pyrrolo[2,3-b]pyridin-5-yl)cyclohexyl)morpholine]	288
Mixture of 3-(1-methyl-1H-pyrazol-4-yl)-5-(6-methylcyclohex-1-enyl)-1H-pyrrolo[2,3-b]pyridine and 3-(1-methyl-1H-pyrazol-4-yl)-5-(2-methylcyclohex-1-enyl)-1H-pyrrolo[2,3-b]pyridine [Compound I-30]	170
Cn1cc(-c2c[nH]c3ncc(C4=CCC(C)(C)CC4)cc23)cn1 [Compound I-15, 5-(4,4-dimethylcyclohex-1-enyl)-3-(1-methyl-1H-pyrazol-4-yl)-1H-pyrrolo[2,3-b]pyridine]	275
Mixture of 3-(1-methyl-1H-pyrazol-4-yl)-5-(3,5,5-trimethylcyclohex-1-enyl)-1H-pyrrolo[2,3-b]pyridine and 3-(1-methyl-1H-pyrazol-4-yl)-5-(3,3,5-trimethylcyclohex-1-enyl)-1H-pyrrolo[2,3-b]pyridine [Compound I-68]	760
Cn1cc(-c2c[nH]c3ncc([C@H]4CC[C@H](NC5CCOCC5)CC4)cc23)cn1 [Compound I-127, N-((1 r,4r)-4-(3-(1-methyl-1H-pyrazol-4-yl)-1H-pyrrolo[2,3-b]pyridin-5-yl)cyclohexyl)tetrahydro-2H-pyran-4-amine]	398
c1nn(CCN2CCOCC2)cc1-c1c[nH]c2ncc([C@H]3CC[C@H](N4CCOCC4)CC3)cc12 [Compound I-57, 4-(2-(4-(5-((1r,4r)-4-morpholinocyclohexyl)-1H-pyrrolo[2,3-b]pyridin-3-yl)-1H-pyrazol-1-yl)ethyl)morpholine]	417
CCCN(C)[C@H]1CC[C@H](c2cnc3[nH]cc(-c4cnn(C)c4)c3c2)CC1 [Compound I-115, (1r,4r)-N-methyl-4-(3-(1-methyl-1H-pyrazol-4-yl)-1H-pyrrolo[2,3-b]pyridin-5-yl)-N-propylcyclohexanamine]	347
CN1CCN(C2CC3C=C(c4cnc5[nH]cc(-c6cnn(C)c6)c5c4)CC(C3)C2)CC1 (stereo not drawn) [Compound I-149, trans-3-(1-methyl-1H-pyrazol-4-yl)-5-(7-(4-methylpiperazin-1-yl)bicyclo[3.3.1]non-2-en-3-yl)-1H-pyrrolo[2,3-b]pyridine]	> 500
FC(F)n1cc(-c2c[nH]c3ncc(C4=CCC(N5CCOCC5)CC4)cc23)cn1 (centres unmarked) [Compound I-5, 3-(1-Difluoromethyl-1H-pyrazol-4-yl)-5-(4-morpholin-4-yl-cyclohex-1-enyl)-1H-pyrrolo[2,3-b]pyridine]	339
COC1(c2cnc3[nH]cc(-c4cnn(C)c4)c3c2)CCCC1 [Compound I-63, 5-(1-methoxycyclopentyl)-3-(1-methyl-1H-pyrazol-4-yl)-1H-pyrrolo[2,3-b]pyridine]	468
COCCN(C)[C@H]1CC[C@H](c2cnc3[nH]cc(-c4cnn(C)c4)c3c2)CC1 [Compound I-117, (1r,4r)-N-(2-methoxyethyl)-N-methyl-4-(3-(1-methyl-1H-pyrazol-4-yl)-1H-pyrrolo[2,3-b]pyridin-5-yl)cyclohexanamine]	288

Continued by falling IC50, values first:

IC50 [nM]	Molecule
263	COCCN[C@H]1CC[C@H](c2cnc3[nH]cc(-c4cnn(C)c4)c3c2)CC1 [Compound I-111, (1r,4r)-N-(2-methoxyethyl)-4-(3-(1-methyl-1H-pyrazol-4-yl)-1H-pyrrolo[2,3-b]pyridin-5-yl)cyclohexanamine]
263	C[C@H]1COCCN1[C@H]1CC[C@H](c2cnc3[nH]cc(-c4cnn(C)c4)c3c2)CC1 [Compound I-103, (S)-3-methyl-4-((1r,4S)-4-(3-(1-methyl-1H-pyrazol-4-yl)-1H-pyrrolo[2,3-b]pyridin-5-yl)cyclohexyl)morpholine]
251	Cn1cc(-c2c[nH]c3ncc([C@H]4CC[C@H](C(=O)O)CC4)cc23)cn1 [Compound I-76, (1r,4r)-4-(3-(1-methyl-1H-pyrazol-4-yl)-1H-pyrrolo[2,3-b]pyridin-5-yl)cyclohexanecarboxylic acid]
214	Cn1cc(-c2c[nH]c3ncc([C@H]4CC[C@H](N5CC[C@H](F)C5)CC4)cc23)cn1 [Compound I-50, 5-((1S,4r)-4-((S)-3-fluoropyrrolidin-1-yl)cyclohexyl)-3-(1-methyl-1H-pyrazol-4-yl)-1H-pyrrolo[2,3-b]pyridine]
199	Cn1cc(-c2c[nH]c3ncc(C4=CCC(C(C)(C)C)CC4)cc23)cn1 (centres unmarked) [Compound I-2, 5-(4-tert-butylcyclohex-1-enyl)-3-(1-methyl-1H-pyrazol-4-yl)-1H-pyrrolo[2,3-b]pyridine]
174	Cn1cc(-c2c[nH]c3ncc(C4=C[C@H]5O[C@@H]4C[C@H]5C#N)cc23)cn1 [I-155 endo, (1R,2S,4R)-5-(3-(1-methyl-1H-pyrazol-4-yl)-1H-pyrrolo[2,3-b]pyridin-5-yl)-7-oxabicyclo[2.2.1]hept-5-ene-2-carbonitrile]
158	c1nn(CCN2CCOCC2)cc1-c1c[nH]c2ncc(C3CCCC3)cc12 [Compound I-64, 5-Cyclopentyl-3-[1-(2-morpholin-4-yl-ethyl)-1H-pyrazol-4-yl]-1H-pyrrolo[2,3-b]pyridine]
138	Cn1cc(-c2c[nH]c3ncc(C4CCC(F)(F)CC4)cc23)cn1 [Compound I-42, 5-(4,4-difluorocyclohexyl)-3-(1-methyl-1H-pyrazol-4-yl)-1H-pyrrolo[2,3-b]pyridine]
123	Cn1cc(-c2c[nH]c3ncc(C4CCC(C(C)(C)C)CC4)cc23)cn1 (mixture of isomers) [Compound I-4, 5-(4-tert-butylcyclohexyl)-3-(1-methyl-1H-pyrazol-4-yl)-1H-pyrrolo[2,3-b]pyridine]
110	CC1CCCCC1c1cnc2[nH]cc(-c3cnn(C)c3)c2c1 (mixture of isomers) [Compound I-33, 3-(1-methyl-1H-pyrazol-4-yl)-5-(2-methylcyclohexyl)-1H-pyrrolo[2,3-b]pyridine]
110	Cn1cc(-c2c[nH]c3ncc(C4=CCCCC4)cc23)cn1 [Compound I-12, 5-cyclohexenyl-3-(1-methyl-1H-pyrazol-4-yl)-1H-pyrrolo[2,3-b]pyridine]
103	Cn1cc(-c2c[nH]c3ncc(C4CCC(N5CCC5)CC4)cc23)cn1 (centres unmarked) [Compound I-41, 5-(4-(azetidin-1-yl)cyclohexyl)-3-(1-methyl-1H-pyrazol-4-yl)-1H-pyrrolo[2,3-b]pyridine]
93	Cn1cc(-c2c[nH]c3ncc([C@H]4CC[C@H](N5CCC(F)(F)C5)CC4)cc23)cn1 [Compound I-47, 5-((1r,4r)-4-(3,3-difluoropyrrolidin-1-yl)cyclohexyl)-3-(1-methyl-1H-pyrazol-4-yl)-1H-pyrrolo[2,3-b]pyridine]
87	Cn1cc(-c2c[nH]c3ncc(C4CC5CC4C(CO)C5CO)cc23)cn1 (centres unmarked) [Compound I-140, (5-(3-(1-methyl-1H-pyrazol-4-yl)-1H-pyrrolo[2,3-b]pyridin-5-yl)bicyclo[2.2.1]heptane-2,3-diyl)dimethanol]
79	CC1CCCC(c2cnc3[nH]cc(-c4cnn(C)c4)c3c2)C1 (mixture of isomers) [Compound I-32, 3-(1-methyl-1H-pyrazol-4-yl)-5-(3-methylcyclohexyl)-1H-pyrrolo[2,3-b]pyridine]
63	Cn1cc(-c2c[nH]c3ncc([C@H]4CC[C@H](CO)CC4)cc23)cn1 [Compound I-74, ((1r,4r)-4-(3-(1-methyl-1H-pyrazol-4-yl)-1H-pyrrolo[2,3-b]pyridin-5-yl)cyclohexyl)methanol]
49	Cn1cc(-c2c[nH]c3ncc(C4=CCC(C)(C)C=C4)cc23)cn1 [Compound I-21, 5-(4,4-dimethylcyclohexa-1,5-dienyl)-3-(1-methyl-1H-pyrazol-4-yl)-1H-pyrrolo[2,3-b]pyridine]
16	CCC1CC=C(c2cnc3[nH]cc(-c4cnn(C)c4)c3c2)CC1 (centres unmarked) [Compound I-8, 5-(4-ethylcyclohex-1-enyl)-3-(1-methyl-1H-pyrazol-4-yl)-1H-pyrrolo[2,3-b]pyridine]
